The subject of data set [1] is immortalized human ovarian surface epithelial cell line IOSE80PC. Nature of the data set: MTT cell viability assay, IOSE80PC. The following applies: 48 h incubation, IOSE80PC cells. Format: cell-based. The source says:
(§1) To identify anti-tumor constituents in Pueraria Flos, we examined the effects of the 25 isolates on the cell viability of the human ovarian cancer A2780 cell line using the MTT assay. […] To further evaluate the effect of the compounds on the cell viability of non-malignant ovarian epithelial cells, we explored the cytotoxicity of the eight compounds (8, 10, 11, 12, 14, 16, 17, and 21) against the immortalized human ovarian surface epithelial cell line IOSE80PC.
(§2) Human ovarian endometrioid adenocarcinoma cell line A2780 and immortalized ovarian surface epithelial cell line IOSE80PC were provided by Dr. Ie-Ming Shih (Johns Hopkins School of Medicine, Baltimore, MD, USA) and Dr. N. Auersperg (University of British Columbia, Vancouver, British Columbia, Canada), respectively. The cells were cultured in Roswell Park Memorial Institute (RPMI) 1640 supplemented with 5% fetal bovine serum (FBS), penicillin (100 U/mL), and streptomycin sulfate (100 μg/mL) in a 5% CO2 and 95% air humidified atmosphere at 37 °C. RPMI 1640, FBS, streptomycin sulfate, and penicillin were procured from Life Technologies Inc. (Grand Island, NY, USA). The cells were seeded at a density of 1.0 × 10^5 cells/mL in a 96-well plate containing 50 μL of RPMI medium in each well and incubated for 24 h. Various concentrations of compounds dissolved in dimethyl sulfoxide (DMSO) were mixed with RPMI 1640 medium and added into cells in each well. […] Following 48 h incubation, 50 μL of MTT (Molecular Probes Inc., Eugene, OR, USA) solution was added into each well to achieve a final concentration of 0.5 mg/mL and then incubated for an additional 4 h. The medium was discarded, and the formazan blue that formed in the cells was dissolved in 50 μL of DMSO. The optical density was measured at 540 nm by microplate spectrophotometer (SpectraMax; Molecular Devices, Sunnyvale, CA, USA). […] IC50 is defined as the concentration that reduces cell number by 50% compared to control cultures.
A general note: Tetrazolium assays rely on reduction of a dye to a coloured formazan, in cell work by metabolically active cells.

Data set [2] concerns human ovarian cancer cell line A2780. Nature of the data set: MTT cell viability assay, A2780. Format: cell-based. The following applies: 48 h incubation, A2780 cells.
Source text: as §1, §2

For data set [3], the system named is ovarian cancer cell line A2780. The arrangement: method as in PMID 18974065, PMID 19447105. The following applies: by suppressing the expression of Id1 and focal adhesion kinase; cited from earlier work.
Data set [4] has as its system VEGF expression. The arrangement: method as in PMID 19005980. The following applies: cited from earlier work.
Data set [5] has as its system ovarian cancer cell line OVCAR3. The arrangement: method as in PMID 19005980. To be noted: cited from earlier work.
Data set [6] relates to breast cancer cell line MCF-7. The arrangement: method as in PMID 27784319, PMID 15787436. To be noted: cited from earlier work.
Data set [7] concerns (HEK293). Further details: method as in doi:10.1016/0031-9422(93)85369-3, PMID 24018191. To be noted: cited from earlier work.
In data set [8] the test system is Lu1. The arrangement: method as in PMID 19026551. The following applies: cited from earlier work.
In data set [9] the test system is LNCaP. The arrangement: method as in PMID 19026551. The following applies: cited from earlier work.
In data set [10] the test system is MCF-7. Further details: method as in PMID 19026551. To be noted: cited from earlier work.
Data set [11] has as its system murine lymphocytic leukemia (P-388). Further details: method as in doi:10.1016/0031-9422(93)85369-3, PMID 24018191. The following applies: cited from earlier work.
For data set [12], the system named is colon adenocarcinoma (SW-480). Further details: method as in doi:10.1016/0031-9422(93)85369-3, PMID 24018191. The following applies: cited from earlier work.

Where only a bound is given, the exact number is not on record here.

These results are taken from article PMC9269118, “Chemical Constituents of the Flowers of Pueraria lobata and Their Cytotoxic Properties” (Plants, 2022).

As to `N.N.[Cl][Pt][Cl]` [Cisplatin, cisplatin, reference compound], the IC50 (as a rule, the concentration at which inhibition is half-maximal) is 12.8 ± 0.55 µM in data set [1] and 10.7 ± 0.81 µM in [2].

For the compound `O=C1C[C@@](O)(c2ccc(O)cc2)Oc2cc(O)cc(O[C@@H]3O[C@H](CO)[C@@H](O)[C@H](O)[C@H]3O)c21` [Compound 6, 2-hydroxy-naringenin-5-O-β-D-glucopyranoside], in data set [2] (Homo sapiens, A2780, 48 h), the IC50 was above 100 µM.

Take `O=c1cc(-c2ccc(O)cc2)oc2cc(O)cc(O)c12` [Compound 8, apigenin]: the “proliferation and migration of A2780” value in data set [3] was “inhibits the proliferation and migration”. In data set [1] (Homo sapiens, IOSE-80PC), this compound displayed an IC50 above 100 µM.

Regarding `C[C@@H]1O[C@@H](OC[C@H]2O[C@@H](Oc3c(-c4ccc(O)cc4)oc4cc(O)cc(O)c4c3=O)[C@H](O)[C@@H](O)[C@@H]2O)[C@H](O)[C@H](O)[C@H]1O` [Compound 9, nicotiflorin], the IC50 in data set [2] (Homo sapiens, A2780, 48 h) was above 100 µM.

With `O=c1c(-c2ccc(O)cc2)coc2cc(O)cc(O)c12` [Compound 10, genistein], the “VEGF expression in OVCAR3” value in data set [4] is on record as “downregulates VEGF expression”. The compound further came in with an IC50 in [1] (Homo sapiens, IOSE-80PC) above 100 µM. Besides, the “cell proliferation in OVCAR3” value in data set [5] is “inhibits cell proliferation”.

As for `COc1c(O)cc2occ(-c3ccc(O)cc3)c(=O)c2c1O` [Compound 11, tectorigenin], the concentration for half-maximal inhibition (IC50) in data set [1] (Homo sapiens, IOSE-80PC) was above 100 µM.

Turning to `COc1c(O)cc2occ(-c3ccc(O)c(O)c3)c(=O)c2c1O` [Compound 12, irilin D], the half-inhibitory concentration (IC50) in data set [1] (Homo sapiens, IOSE-80PC) is above 100 µM; in [2], 57.5 ± 3.08 µM; in [2] (Homo sapiens, A2780, 48 h), below 100 µM. The “anticancer activity in MCF-7” value in data set [6] is on record as “anticancer activity”.

With `COc1c(O[C@@H]2O[C@H](CO)[C@@H](O)[C@H](O)[C@H]2O)cc2occ(-c3ccc(O)cc3)c(=O)c2c1O` [Compound 13, tectoridin], the IC50 in [2] (Homo sapiens, A2780, 48 h) was above 100 µM.

On to `COc1ccc(-c2coc3cc(OC4OC(CO)C(O)C(O)C4O)c(OC)c(O)c3c2=O)cc1` [Compound 14, irisolidone-7-O-β-D-glucopyranoside], for which the IC50 was above 100 µM in [1] (Homo sapiens, IOSE-80PC); 71.2 ± 11.3 µM in [2]; below 100 µM in [2] (Homo sapiens, A2780, 48 h).

`COc1c(OC2OC(COC3OCC(O)C(O)C3O)C(O)C(O)C2O)cc2occ(-c3ccc(O)cc3)c(=O)c2c1O` [Compound 15, tectorigenin-7-O-β-D-xylopyranosyl-(1→6)-O-β-D-glucopyronoside]: the IC50 in data set [2] (Homo sapiens, A2780, 48 h) was above 100 µM.

Regarding `COc1cc2c(=O)c(-c3ccc(O)cc3)coc2cc1O` [Compound 16, glycitein], the concentration for half-maximal inhibition (IC50) in data set [1] (Homo sapiens, IOSE-80PC) was above 100 µM.

The compound `COc1ccc(-c2coc3cc(O)c(OC)cc3c2=O)cc1` [Compound 17, afromosin] registered an IC50 in data set [1] (Homo sapiens, IOSE-80PC) above 100 µM. In data set [6], the “anticancer activity in MCF-7” value was “anticancer activity”.

Consider `COc1cc([C@@H]2Oc3ccc(-c4cc(=O)c5c(O)cc(O)cc5o4)cc3O[C@H]2CO)ccc1O` [Compound 21, (-)-hydnocarpin], for which the “antiproliferative activity against HEK293” value in data set [7] is “considerable antiproliferative activities”. In addition, the “cytotoxicity against Lu1” value in data set [8] is “no cytotoxicity”. The same compound displayed an IC50 in data set [1] (Homo sapiens, IOSE-80PC) of 65.8 ± 1.6 µM. Further, the “cytotoxicity against LNCaP” value in data set [9] is “no cytotoxicity”. Moreover, in data set [10], the “cytotoxicity against MCF-7” value is “no cytotoxicity”. In addition, the “antiproliferative activity against P-388” value in data set [11] is on record as “considerable antiproliferative activities”. For the same compound, the “antiproliferative activity against SW-480” value in [12] is reported as “considerable antiproliferative activities”.

With `C[C@@H]1O[C@@H](OC[C@H]2O[C@@H](OCc3ccccc3)[C@H](O)[C@@H](O)[C@@H]2O)[C@H](O)[C@H](O)[C@H]1O` [Compound 22, hydrageifolin I], the IC50 in [2] (Homo sapiens, A2780, 48 h) was above 100 µM.

On to `O=c1c(O)c(-c2ccc(O)c(O)c2)oc2cc(O)cc(O)c12` [Quercetin, quercetin, reference compound], for which the IC50 in data set [1] (Homo sapiens, IOSE-80PC) is above 100 µM; in data set [2] (Homo sapiens, A2780, 48 h), 19.4 ± 2.92 µM.
